Experimental data as given in ChEMBL document CHEMBL4495565, “Cytopathic SARS-Cov2 screening on VERO-E6 cells in a large repurposing effort” (2020).
Where “and” joins values, the source holds several entries; their conditions need not be identical. Identical values can stand only once. Counter-ions that a name gives are not always drawn.

Key:
SARS-CoV-2 = assay: microbe, parasite or virus in culture; type: functional, organism-based, Chlorocebus sabaeus, Vero C1008
in vitro [1] = conditions: chlorocebus sabaeus
in vitro [2] = conditions: chlorocebus sabaeus; remark: listed apart in the source
[3] = Severe acute respiratory syndrome coronavirus 2, Vero C1008, 48 h
[4] = VERO-E6 cells, Selectivity index
[5] = VERO-E6 cells (Vero C1008), uninfected, CC50

| SMILES | IC50 (SARS-CoV-2; [3]) [µM] | selectivity ratio (in vitro [1]; [4]) | CC50 at 48 h (in vitro [2]; [5]) [µM] | IC50 (SARS-CoV-2; vero c1008) | CC50 at 48 h (in vitro [2]; vero c1008, CC50) [µM] | selectivity ratio (in vitro [1]; vero c1008, Selectivity index) |
| --- | --- | --- | --- | --- | --- | --- |
| Nc1ncnc2c1c(-c1cnc3[nH]ccc3c1)nn2C1CCCC1 | 11.8 | 0.76 | 8.95 | – | – | – |
| CNC(=O)Nc1ccc(-c2nc(N3CC4CCC(C3)O4)c3cnn(C4CCC5(CC4)OCCO5)c3n2)cc1 | 21.6 | 0.01 | 0.18 | – | – | – |
| N#Cc1cc2c(OCC(O)CN3CCN(C(c4ccccc4)c4ccccc4)CC3)cccc2[nH]1 (racemic; form 1) | 25.6 | 0.49 | 12.7 | – | – | – |
| CCN(CC)Cc1cc(Nc2ccnc3cc(Cl)ccc23)ccc1O [AMODIAQUINE] | 4.07 | 4.12 | 16.8 | – | – | – |
| OCCCNc1cc(-c2ccnc(Nc3cccc(Cl)c3)n2)ccn1 | 7.9 | 1.03 | 8.17 | – | – | – |
| COc1ccc(-c2c[nH]c3nccc(-c4ccsc4)c23)c(OC)c1 | 15.8 | 0.05 | 0.82 | – | – | – |
| CC(C)(C)c1cc(C=C(C#N)C#N)cc(Br)c1O | 8.77 | 1.18 | 10.4 | – | – | – |
| CC(C)(C)c1ccccc1Oc1ncccc1NC(=O)Nc1ccc(OC(F)(F)F)cc1 | 7 | 1.41 | 9.9 | – | – | – |
| COc1ccc(CNc2nc(N(CCO)CCO)nc3c2ncn3C(C)C)cc1 | 7.95 | 0.82 | 6.49 | – | – | – |
| CC(C)(C)C(=O)/C(=C/c1cccc([N+](=O)[O-])c1)n1cncn1 | 4.33 | 1.23 | 5.31 | – | – | – |
| N[C@H]1CC[C@H](N[C@@H]2C[C@H]2c2ccccc2)CC1 | > 33 | 1 | > 33 | – | – | – |
| Cc1nc2cnc3ccc(C#Cc4cccnc4)cc3c2n1-c1ccc(C(C)(C)C#N)cc1 | 0.11 | 1 | 0.11 | – | – | – |
| Cc1c(C(=O)c2cccc3ccccc23)c2cccc3c2n1[C@H](CN1CCOCC1)CO3 [WIN-552122] | > 33 | – | 7.06 | – | – | – |
| O=C(Nc1ccc([N+](=O)[O-])cc1Cl)c1cc(Cl)ccc1O [NICLOSAMIDE] | – | – | – | 4.1 µM and > 33 µM | > 33 | – |
| C/C(=C\c1ccc(C(=O)O)cc1)c1ccc2c(c1)C(C)(C)CCC2(C)C | > 33 | – | 4.07 | – | – | – |
| Cc1cnc(Nc2ccc(F)cc2Cl)nc1-c1c[nH]c(C(=O)N[C@H](CO)c2cccc(Cl)c2)c1 | 5.54 | 0.35 | 1.92 | – | – | – |
| COc1cc(/C=C2\SC(=O)NC2=O)ccc1Oc1ccc(C#N)cc1C(F)(F)F | > 33 | – | 3.33 | – | – | – |
| CC(C)C[C@H](NC(=O)CNC(=O)c1cc(Cl)ccc1Cl)B(O)O [IXAZOMIB] | > 33 | – | 2.7 | – | – | – |
| O=C(C1CC1)N1CC[C@@H](Cc2n[nH]c(=O)n2-c2ccc(-c3ccc4occc4c3)cc2)C1 | 17 | – | – | – | > 33 | 1.94 |
| O=C(c1ccc(OCCN2CCCCC2)cc1)c1c(-c2ccc(O)cc2)sc2cc(O)ccc12 [RALOXIFENE HYDROCHLORIDE] | 15.4 | – | > 33 | – | – | – |

| SMILES | IC50 (SARS-CoV-2; [3]) [µM] | selectivity ratio (in vitro [1]; [4]) | CC50 at 48 h (in vitro [2]; [5]) [µM] | IC50 (SARS-CoV-2; vero c1008) | CC50 at 48 h (in vitro [2]; vero c1008, CC50) [µM] | selectivity ratio (in vitro [1]; vero c1008, Selectivity index) |
| --- | --- | --- | --- | --- | --- | --- |
| O[C@@H](COc1cccc2ncccc12)CN1CCN([C@@H]2c3ccccc3[C@@H]3[C@H](c4ccccc42)C3(F)F)CC1 [ZOSUQUIDAR TRIHYDROCHLORIDE] | 8.4 | – | – | – | 9.11 | 1.08 |
| COC(=O)C[C@@](O)(CCC(C)(C)O)C(=O)O[C@@H]1C(OC)=C[C@]23CCCN2CCc2cc4c(cc2[C@@H]13)OCO4 | 0.79 | 2.46 | 1.94 | – | – | – |
| Nc1nccc2c1ncn2[C@@H]1C=C(CO)[C@@H](O)[C@H]1O | 2.07 | 0.14 | 0.3 | – | – | – |
| COCCNCc1ccc(-c2cc3nccc(Oc4ccc(NC(=S)NC(=O)Cc5ccc(F)cc5)cc4F)c3s2)nc1 [GLESATINIB] | 1.04 | 0.62 | 0.64 | – | – | – |
| Cc1ccc(Nc2ncc3c(n2)N(C)C(=O)N(c2cc(NC(=O)c4cccc(C(F)(F)F)c4)ccc2C)C3)cn1 | 5.21 | 0.12 | 0.61 | – | – | – |
| CN(C)c1cccc(-c2c3c(=O)n(-c4ccccc4Cl)[nH]c3cc(=O)n2C)c1 [SETANAXIB] | 11.8 | – | – | – | 14.8 | 1.26 |
| Cc1cc(C)c2c(c1)[C@@H](N(Cc1cc(C(F)(F)F)cc(C(F)(F)F)c1)c1nnn(C)n1)CCCN2C[C@H]1CC[C@H](C(=O)O)CC1 [EVACETRAPIB] | > 33 | – | > 33 | – | – | – |
| Cc1cc(O)c2c(=O)c3c(O)cc(O)c4c5c(O)cc(O)c6c(=O)c7c(O)cc(C)c8c1c2c(c34)c(c78)c65 [HYPERICIN] | 0.25 | 5.24 | 1.31 | – | – | – |
| COc1ccc(C[C@H]2NC[C@H](O)[C@H]2OC(C)=O)cc1 [ANISOMYCIN] | 0.09 | 1.11 | – | – | 0.1 | – |
| Clc1ccccc1CNC[C@H]1CC[C@H](CNCc2ccccc2Cl)CC1 | 22.7 | 1.36 | 30.9 | – | – | – |
| CC1=C(/C=C/C(C)=C/C=C/C(C)=C/C(=O)Nc2ccc(O)cc2)C(C)(C)CCC1 [FENRETINIDE] | > 33 | – | 10.5 | – | – | – |
| C/C=C/C[C@@H](C)C(=O)[C@H]1C(=O)N[C@@H](C(C)C)C(=O)N(C)CC(=O)N(C)[C@@H](CC(C)C)C(=O)N[C@@H](C(C)C)C(=O)N(C)[C@@H](CC(C)C)C(=O)N[C@@H](C)C(=O)N[C@H](C)C(=O)N(C)[C@@H](CC(C)C)C(=O)N(C)[C@@H](CC(C)C)C(=O)N(C)[C@@H](C(C)C)C(=O)N1C [VALSPODAR] | > 33 | – | 13.4 | – | – | – |
| CCS(=O)(=O)c1ccc(CC(=O)Nc2cc(Cl)c(-c3ccccc3OC(F)(F)F)c(Cl)c2)cc1 | 21 | 0.58 | 12.1 | – | – | – |
| CN1CCN(C2CCN(C(=O)Nc3cc(Oc4ccc(NC(=O)C5(C(=O)Nc6ccc(F)cc6)CC5)c(F)c4)ccn3)CC2)CC1 [GOLVATINIB] | 5.89 | – | > 33 | – | – | – |
| CCCCCCCCCCCCCCOc1ccc(C(=O)O)o1 [TOFA] | 4.04 | – | > 33 | – | – | – |
| CC(C)[C@H]1c2ccc(F)cc2CC[C@@]1(CCN(C)CCCc1nc2ccccc2[nH]1)OC(=O)C1CC1 | 8.21 | 0.99 | 8.13 | – | – | – |
| COC(=O)c1ccccc1-c1c2ccc(=N)cc-2oc2cc(N)ccc12 [RHODAMINE123] | 0.8 | – | > 33 | – | – | – |
| CC[C@H](CC#N)OC(=O)N[C@@H](C)c1cccc(NC(=O)Nc2ccc(-c3cnco3)c(OC)c2)c1 [AVN-944] | 1.14 | 0.67 | 0.76 | – | – | – |
| CCN(CC)CCCCNc1ncc2cc(-c3c(Cl)cccc3Cl)c(NC(=O)NC(C)(C)C)nc2n1 | > 33 | – | 12.7 | – | – | – |
| CC(=O)[C@]1(N)Cc2c(O)c3c(c(O)c2[C@@H](O[C@H]2C[C@H](O)[C@H](O)CO2)C1)C(=O)c1ccccc1C3=O [AMRUBICIN] | 0.33 | – | > 33 | – | – | – |

| SMILES | IC50 (SARS-CoV-2; [3]) [µM] | selectivity ratio (in vitro [1]; [4]) | CC50 at 48 h (in vitro [2]; [5]) [µM] | IC50 (SARS-CoV-2; vero c1008) | CC50 at 48 h (in vitro [2]; vero c1008, CC50) [µM] | selectivity ratio (in vitro [1]; vero c1008, Selectivity index) |
| --- | --- | --- | --- | --- | --- | --- |
| Cc1c(CN2CCN(C(=O)[C@H](C)O)CC2)sc2c(N3CCOCC3)nc(-c3cnc(N)nc3)nc12 [APITOLISIB] | 2.31 | 0.22 | 0.5 | – | – | – |
| CCN(CC)c1ccc2cc(-c3nc4ccccc4[nH]3)c(=O)oc2c1 | 0.36 | – | > 33 | – | – | – |
| COc1cc(C[C@H]2c3cc(OC)c(OC)cc3CCN2C)c(Oc2cc3c(cc2OC)-c2c(OC)c(OC)cc4c2[C@H](C3)N(C)CC4)cc1OC [THALICARPINE] | 3.87 | 8.53 | > 33 | – | – | – |
| Cc1[nH]c(/C=C2\C(=O)Nc3cc(-c4ccccc4)ccc32)c(C)c1CCC(=O)O | 4.1 | 0.01 | 0.03 | – | – | – |
| CC(C)n1cnc2c(NCCc3ccc(O)cc3)nc(-c3csc4ccccc34)nc21 | > 33 | – | 12.6 | – | – | – |
| C[C@@H](OC[C@@]1(c2ccccc2)CC[C@]2(CCC(=O)N2)CN1)c1cc(C(F)(F)F)cc(C(F)(F)F)c1 [ROLAPITANT] | 19.6 | – | > 33 | – | – | – |
| CN(Cc1cnc2nc(N)nc(N)c2n1)c1ccc(C(=O)N[C@@H](CCC(=O)O)C(=O)O)cc1 [METHOTREXATE] | 0.05 | – | 0.05 | – | – | – |
| C[C@H]1Cc2c([nH]c3cc(Cl)c(F)cc23)[C@@]2(N1)C(=O)Nc1ccc(Cl)cc12 [CIPARGAMIN] | > 33 | – | > 33 | – | – | – |
| CC(C)C[C@H](NC(=O)[C@@H](NC(=O)c1cccc(-c2ccccc2)n1)[C@@H](C)O)B(O)O [DELANZOMIB] | 1.3 | 0.35 | 0.46 | – | – | – |
| O=C(O)c1ccc(N2C(=O)/C(=C/c3ccc(-c4ccc([N+](=O)[O-])cc4)o3)C=C2c2ccccc2)cc1 | > 33 | – | 12.8 | – | – | – |
| C=CC(=O)N1CCC(Oc2cc3c(Nc4ccc(Cl)c(Cl)c4F)ncnc3cc2OC)CC1 [POZIOTINIB] | > 33 | – | 11.5 | – | – | – |
| CC1=NN(c2ccc(C)c(C)c2)C(=O)/C1=N\Nc1cccc(-c2cccc(C(=O)O)c2)c1O [ELTROMBOPAG] | > 33 | – | 3.26 | – | – | – |
| CC(C)n1nc(-c2cc3cc(O)ccc3[nH]2)c2c(N)ncnc21 | > 33 | – | – | – | 1.63 | 0.05 |
| O=c1cc(N2CCOCC2)oc2c(-c3cccc4c3sc3ccccc34)cccc12 | 3.79 | 0.15 | 0.58 | – | – | – |
| Nc1c[nH]c(=O)c2cc(-c3ccccc3)sc12 | 5.26 | – | > 33 | – | – | – |
| CC(C)c1cccc2c(-c3ccccc3)cc(-c3ccc(-c4ccc(C(=O)O)cc4)[nH]3)nc12 | > 33 | – | > 33 | – | – | – |
| Cc1cc2c(F)c(Oc3ncnn4cc(OC[C@@H](C)OC(=O)[C@H](C)N)c(C)c34)ccc2[nH]1 [BRIVANIB ALANINATE] | 6.5 | 0.4 | 2.58 | – | – | – |
| CCCCOCCOc1ccc(-c2ccc3c(c2)/C=C(/C(=O)Nc2ccc([S@@+]([O-])Cc4cncn4CCC)cc2)CCCN3CC(C)C)cc1 [CENICRIVIROC] | > 33 | – | 11.7 | – | – | – |
